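Cultured in 96-well plates, cells were exposed to test compound for 48 hours across five concentrations. GI50 marks 50% less growth.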 Activity calls are given as the source filed them. Rule as the data show it: active = GI50 up to about 1.1 µM and inactive = higher.
How the values were obtained:
Assay in all cases: DTP human tumour cell line panel, 48 h
A498 = system: A498
EKVX = system: EKVX
HCT-116 = system: HCT-116
HT-29 = system: HT-29
Hs-578T = system: Hs-578T
MDA-N = system: MDA-N
MOLT-4 = system: MOLT-4
Malme-3M = system: Malme-3M
NCI-H23 = system: NCI-H23
NCI/ADR-RES = system: NCI/ADR-RES
PC-3 = system: PC-3
RPMI-8226 = system: RPMI-8226
SF-268 = system: SF-268
SK-MEL-5 = system: SK-MEL-5
SK-OV-3 = system: SK-OV-3
SR = system: SR
TK-10 = system: TK-10
UACC-257 = system: UACC-257
KM12 = system: KM12
UACC-62 = system: UACC-62

| Compound | GI50 (A498) | GI50 (EKVX) | GI50 (HCT-116) | GI50 (HT-29) | GI50 (Hs-578T) | GI50 (MDA-N) | GI50 (MOLT-4) | GI50 (Malme-3M) | GI50 (NCI-H23) | GI50 (NCI/ADR-RES) | GI50 (PC-3) | GI50 (RPMI-8226) | GI50 (SF-268) | GI50 (SK-MEL-5) | GI50 (SK-OV-3) | GI50 (SR) | GI50 (TK-10) | GI50 (UACC-257) | GI50 (KM12) | GI50 (UACC-62) |
| --- | --- | --- | --- | --- | --- | --- | --- | --- | --- | --- | --- | --- | --- | --- | --- | --- | --- | --- | --- | --- |
| O=c1oc2cccnc2n1CCCCN1CCN(c2ccccc2)CC1 | > 100 µM (inactive) | > 100 µM (inactive) | > 100 µM (inactive) | > 100 µM (inactive) | > 100 µM (inactive) | > 100 µM (inactive) | > 100 µM (inactive) | 89.1 µM (inactive) | > 100 µM (inactive) | > 100 µM (inactive) | > 100 µM (inactive) | > 100 µM (inactive) | > 100 µM (inactive) | > 100 µM (inactive) | > 100 µM (inactive) | > 100 µM (inactive) | > 100 µM (inactive) | > 100 µM (inactive) | – | – |
| C=[N+](CNC(=O)CNC(=O)C(Cc1ccc([N+](=O)[O-])cc1)NC(=O)OC(C)(C)C)C(=O)CNC(=O)C(Cc1ccc([N+](=O)[O-])cc1)NC(=O)OC(C)(C)C (configuration not stated) | 30.7 µM (inactive) | > 100 µM (inactive) | 36.2 µM (inactive) | 49.1 µM (inactive) | 26.1 µM (inactive) | > 10 µM (inactive) | 17 µM (inactive) | 44.6 µM (inactive) | 68.1 µM (inactive) | > 100 µM (inactive) | 29.8 µM (inactive) | 16.9 µM (inactive) | 27.8 µM (inactive) | 35.6 µM (inactive) | > 100 µM (inactive) | 24 µM (inactive) | > 100 µM (inactive) | – | 53.1 µM (inactive) | 21.6 µM (inactive) |
| CCCC(=O)Nc1cc([N+](=O)[O-])c([N+](=O)[O-])cc1OC | 15.7 µM (inactive) | 17.7 µM (inactive) | 17.1 µM (inactive) | 13.3 µM (inactive) | 14.4 µM (inactive) | 15.1 µM (inactive) | > 10 µM (inactive) | – | 18.2 µM (inactive) | 39.5 µM (inactive) | 27.2 µM (inactive) | 19.8 µM (inactive) | 16.3 µM (inactive) | 16.6 µM (inactive) | 13.9 µM (inactive) | 5.18 µM (inactive) | 17.2 µM (inactive) | 18.3 µM (inactive) | 12.4 µM (inactive) | 18.2 µM (inactive) |
| Nc1ncc(Cl)c(NCC2(CO)CC(CCc3ccccc3)C2)n1 (configuration not stated) | > 100 µM (inactive) | > 24.9 µM (inactive) | 3.7 µM (inactive) | – | > 100 µM (inactive) | > 100 µM (inactive) | 1.82 µM (inactive) | > 100 µM (inactive) | > 100 µM (inactive) | 3.61 µM (inactive) | > 100 µM (inactive) | 2.79 µM (inactive) | > 100 µM (inactive) | 0.38 µM (active) | > 100 µM (inactive) | 2.38 µM (inactive) | 14.4 µM (inactive) | > 100 µM (inactive) | > 100 µM (inactive) | > 100 µM (inactive) |
| O=c1c2cc(S(=O)(=O)O)ccc2nc(COc2ccc(Oc3ccc(Cl)cc3Cl)cc2)n1C(=S)Nc1ccc(Cl)cc1 | 22.5 µM (inactive) | 21.8 µM (inactive) | 22.5 µM (inactive) | 20.6 µM (inactive) | 20.6 µM (inactive) | 22.1 µM (inactive) | – | 21.6 µM (inactive) | 18.7 µM (inactive) | 17.7 µM (inactive) | 34.1 µM (inactive) | 26.9 µM (inactive) | 16.3 µM (inactive) | 17.7 µM (inactive) | 21.3 µM (inactive) | 1.53 µM (inactive) | 18.3 µM (inactive) | 25.4 µM (inactive) | 22.5 µM (inactive) | 15.8 µM (inactive) |
| CN(CCCNC(=O)c1cn(C)c2c1ccc1cc(Cl)ccc12)CCCNC(=O)c1cn(C)c2c1ccc1cc(Cl)ccc12 | 5.86 µM (inactive) | 2.33 µM (inactive) | 1.88 µM (inactive) | 2.05 µM (inactive) | 1.83 µM (inactive) | 2.23 µM (inactive) | 1.73 µM (inactive) | 2.52 µM (inactive) | 3.91 µM (inactive) | 2.16 µM (inactive) | 1.78 µM (inactive) | – | 1.72 µM (inactive) | 4.99 µM (inactive) | 1.82 µM (inactive) | 2.54 µM (inactive) | 2.47 µM (inactive) | 2.19 µM (inactive) | 1.72 µM (inactive) | 1.84 µM (inactive) |
| O=C(CC(C(=O)c1cccs1)c1ccsc1)c1cccs1 (configuration not stated) | 38.6 µM (inactive) | 28.8 µM (inactive) | 29.9 µM (inactive) | > 100 µM (inactive) | > 100 µM (inactive) | 25.8 µM (inactive) | 46.7 µM (inactive) | > 100 µM (inactive) | > 100 µM (inactive) | 31.9 µM (inactive) | 45.2 µM (inactive) | – | > 100 µM (inactive) | 47.3 µM (inactive) | 61.9 µM (inactive) | 36 µM (inactive) | > 100 µM (inactive) | > 100 µM (inactive) | 71.3 µM (inactive) | 62.1 µM (inactive) |
